Measured values taken from patent US20100080785A1, “DRIED FORMULATIONS” (Zymes, LLC, priority 2008, published 2010).

Experiments:
[1] = stability and shelf life at ambient conditions; type: physicochemical; details: ubiquinol
From the text: By contrast, the dry formulations of ubiquinol disclosed herein remains white for weeks at ambient conditions.
By contrast, the dry formulations of omega-3 fatty acid disclosed herein remains odorless for weeks at ambient conditions.

[2] = stability of the solution on heating to 50-55° C.; type: physicochemical

Row | Molecule | oxidation / colour on storage [1] | degradation on heating without pH adjustment [2]
1 | COc1c(O)c(C)c(C/C=C(\C)CC/C=C(\C)CC/C=C(\C)CC/C=C(\C)CC/C=C(\C)CC/C=C(\C)CC/C=C(\C)CC/C=C(\C)CC/C=C(\C)CCC=C(C)C)c(O)c1OC [bulk ubiquinol, ubiquinol] | gradually oxidizes and develops a yellow hue | –
2 | polyoxyethanyl tocopheryl sebacate [PTS] | – | decomposes and undergoes hydrolysis
